Assay results from PMC6060094, “Structural determinants of the catalytic mechanism of Plasmodium CCT, a key enzyme of malaria lipid biosynthesis” (Scientific Reports, 2018).
Where two headings read alike, the source gives them in different places.

Experiments:
[1] = target: T1, PfCCT(528–795) (Plasmodium falciparum, UniProt P49587, DEL194-211); set-up: method as in Nagy et al.[16]; settings: ref Nagy et al.[16], cited from earlier work
T1 construct: previously described PfCCT(528–795) lacking the lysine-rich Plasmodium specific loop (720–737); His-tag; made in house

[2] = target: PfCCT(528–795) T761A; assay: Equilibrium ligand binding by isothermal titration calorimetry (ITC); set-up: species or system Plasmodium falciparum; settings: 20 °C, pH 7.5, read-out: Kd,CTP
Experimental: (§1) Calorimetric measurements were performed on an ITC 200 titration calorimeter (Malvern) at 20 °C. The protein samples were dialyzed against 20 mM HEPES/NaOH pH 7.5, 100 mM NaCl, including 0.5 mM Tris(2-carboxyethyl)phosphine (TCEP) as reducing agent. CTP and CDPCho were diluted from a concentrated stock into the dialysis buffer with subsequent pH adjustment. Concentration of the titrating nucleotide ligands were determined using molar extinction coefficients 9000 M^−1 cm^−1 at 271 nm for CTP and 5000 M^−1 cm^−1 at 260 nm for CDPCho[16]. In the experimental setup, the cell of the instrument was filled with protein and the syringe with the ligand. The titrations typically included 19 steps of injection with 2 μl of ligand per injection spaced 180 s apart from each other, with the injection syringe rotating at 750 r.p.m. The data were analyzed using MICROCAL ORIGIN software following the directions of the manufacturer. To account for dilution, the invariant integrated heat value of the last 3–5 data points was subtracted from all data points. The one set of independent sites binding model was applied to data for determination of thermodynamic parameters: dissociation constant (Kd), stoichiometry (N), enthalpy (ΔH) and entropy (ΔS). […]

[3] = target: PfCCT(528–795) T762A; assay: as above; set-up: species or system Plasmodium falciparum; settings: 20 °C, pH 7.5, read-out: Kd,CTP
Experimental: as §1

[4] = target: T2, PfCCT(581–775) (Plasmodium falciparum, UniProt P49587, DEL194-211); assay: Saturation Transfer Difference NMR (STD-NMR) ligand binding; settings: 50 µM PfCCT(581-775), 283 K
T2 construct: The PfCCT(581–775) construct was obtained using previously described PfCCT(528–795); 6xHis (TEV-cleavable) (N, cleaved yes); made in house; host or cells: E. coli BL21 (DE3)
Experimental: In order to provide structural insights into the mechanism of action of PfCCT, we set out to crystallize the constitutively active C-terminal catalytic domain of PfCCT. Several constructs were tested and our attempts were successful only in case of PfCCT(581–775) that corresponds to the exact region visible in the crystal structure of RnCCT (PDB: 3HL4)[20] (Fig. 1a). […] (Table 1 and Supplementary Fig. S1). We further assessed the functionality of PfCCT(581–775) by characterizing its substrate and product binding ability. […] Saturation Transfer Difference Nuclear Magnetic Resonance (STD-NMR) experiments indicated STD signal of CTP, ChoP and CDPCho bound to PfCCT(581–775) at 1 mM, 4 mM and 1 mM concentrations, respectively (Supplementary Fig. S1). This latter result is consistent with previously observed unusually low ChoP affinity of PfCCT[16]. We concluded that PfCCT(581–775) is compatible with substrate and product recognition and may be amenable to structural studies provided that its compromised enzymatic function is taken into account in structure-based interpretations. It is likely that the drop of PfCCT(581–775) enzyme activity is due to the elimination of the C-terminal flanking part as similarly located truncations in the RnCCT catalytic domain also led to severe loss of activity[28],[29]. […]
Kinetic data are fitted with the Michaelis–Menten equation. […] Values of the measured kinetic and thermodynamic parameters and their errors […]
(black) of 50 µM PfCCT(581-775) in 20 mM Tris/HCl pH 7.5, 150 mM NaCl and 2 mM EtSH are shown in presence of c) 1 mM CTP, d) 4 mM ChoP and e) 1 mM CDPCho. […] The 1D 1H STD-NMR spectra were recorded on a Bruker 500 MHz instrument at 283 K with 256 scans and selective saturation of protein resonances at 0.922 ppm using a series of Gaussian shaped pulses (20 ms, 1 ms delay between the pulses). […] All 1D 1H NMR spectra were recorded […]

[5] = tested on: PfCCT(528–795) T761A; assay: Continuous coupled colorimetric enzyme activity assay (PPase/PNP/MESG); format: biochemical, Plasmodium falciparum
Experimental: (§2) Enzyme activity measurements were performed as described previously, using a continuous coupled colorimetric assay with pyrophosphatase (PPase), purine nucleoside phosphorylase (PNP) auxiliary enzymes and the auxiliary substrate 7-methyl-6-thioguanosine (MESG)[16],[30],[39]. For CTP substrate titrations, CTP concentration was varied between 100 μM and 2 mM while ChoP concentration was kept constant at 5 mM. For ChoP titrations, ChoP concentration was varied between 0.5 mM and 20 mM while CTP concentration was kept constant at 1 mM. Initial velocities were calculated from the first 10% of the progress curves using phosphate calibration as reference. Due to the low activity of PfCCT(581–775) and PfCCT(528–795) T761A, T762A variants, the enzyme was used at 10 μM concentration and the slope of the absorbance change was determined after monitoring the reaction for 20 minutes. For measurements with PfCCT(528–795) K663A the following reagent concentrations were used in the enzyme assay: [PPase] = 0.17 U·ml^−1, [PNP] = 1.25 U·ml^−1, [MESG] = 0.1 mM, [Mg^2+] = 5 mM and [PfCCT(528–795) K663A] = 10 μM, to yield adequate signal-to-noise ratio (S/N > 10). Three independent experiments were performed for CTP and ChoP kinetic titrations of PfCCT(528–795) K663A. Global fit of CTP and ChoP kinetic titrations for each enzyme variant was performed in Origin 8.6 using Michaelis–Menten equation, to yield a single kcat parameter.

[6] = tested on: PfCCT(528–795) T762A; assay: as above; format: biochemical, Plasmodium falciparum
Experimental: as §2

[7] = target: T3, PfCCT(528–795) K663A (Plasmodium falciparum, UniProt Q8IEE9, DEL720-737/K663A); assay: as above; format: biochemical; settings: refers to a phosphohydrolase activity; ChoP fixed 5 mM; read-out: KM,CTP
T3 sequence (Q8IEE9 528-795, stated change not applied): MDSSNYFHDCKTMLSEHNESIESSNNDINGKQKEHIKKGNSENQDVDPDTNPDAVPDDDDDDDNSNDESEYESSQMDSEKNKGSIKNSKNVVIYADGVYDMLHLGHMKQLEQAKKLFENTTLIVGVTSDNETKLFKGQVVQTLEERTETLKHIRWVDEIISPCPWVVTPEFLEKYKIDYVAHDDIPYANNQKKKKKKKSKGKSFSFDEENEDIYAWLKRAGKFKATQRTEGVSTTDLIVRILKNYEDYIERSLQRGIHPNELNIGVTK
Description: The presence of Cho in the active site at least partially stabilizes the K663 side chain, while ChoP or CDPCho accommodation renders this residue fully visualized. The K663 terminal amino moiety points towards the phosphate group of ChoP or both phosphate moieties of CDPCho, in somewhat different conformations (Fig. 3e and Supplementary Fig. S3). These structural insights showing variable detection and interactions of K663 prompted us to an in-depth definition of its role throughout the course of the catalytic mechanism. We interrogated the functionality of this residue by site directed mutagenesis followed by biochemical analysis. […] The enzymatic activity was monitored by a coupled pyrophosphatase (PPase) assay and consisted of two consecutive steps: the cleavage of the byproduct pyrophosphate into two phosphates and the addition of phosphates to a nucleotide derivative, resulting a chromophore substance. […] The accumulation of free phosphate in the absence of the substrate, ChoP, argued for a CTP phosphohydrolase (CTP → CDP + Pi) activity of the K663A mutant (Supplementary Fig. S4). […] For reliable characterization of ligand interactions of this lysine, we measured the equilibrium ligand binding of CDPCho and CTP to PfCCT(528–795) K663A (Table 2 and Supplementary Fig. S4). […]

[8] = target: T2, PfCCT(581–775); assay: as above; format: biochemical; settings: CTP varied 100 μM–2 mM, ChoP fixed 5 mM
Experimental: as §2

[9] = target: T4, PfCCT(528–795) Y626F/Q636A (Plasmodium falciparum, UniProt Q8IEE9, DEL720-737/Q636A/Y626F); assay: as above; format: biochemical
T4 sequence (Q8IEE9 528-795, stated change not applied): as above
Experimental: as §2

[10] = target: T4, PfCCT(528–795) Y626F/Q636A; assay: Equilibrium ligand binding by isothermal titration calorimetry (ITC); settings: 20 °C, pH 7.5, single experiment, errors of model fit
Experimental: (§3) Calorimetric measurements were performed on an ITC 200 titration calorimeter (Malvern) at 20 °C. The protein samples were dialyzed against 20 mM HEPES/NaOH pH 7.5, 100 mM NaCl, including 0.5 mM Tris(2-carboxyethyl)phosphine (TCEP) as reducing agent. CTP and CDPCho were diluted from a concentrated stock into the dialysis buffer with subsequent pH adjustment. Concentration of the titrating nucleotide ligands were determined using molar extinction coefficients 9000 M^−1 cm^−1 at 271 nm for CTP and 5000 M^−1 cm^−1 at 260 nm for CDPCho[16]. In the experimental setup, the cell of the instrument was filled with protein and the syringe with the ligand. The titrations typically included 19 steps of injection with 2 μl of ligand per injection spaced 180 s apart from each other, with the injection syringe rotating at 750 r.p.m. The data were analyzed using MICROCAL ORIGIN software following the directions of the manufacturer. To account for dilution, the invariant integrated heat value of the last 3–5 data points was subtracted from all data points. The one set of independent sites binding model was applied to data for determination of thermodynamic parameters: dissociation constant (Kd), stoichiometry (N), enthalpy (ΔH) and entropy (ΔS). Due to the low apparent affinity, the N value was fixed to a constant value of 1 in CTP titrations to PfCCT(528–795) K663A according to the low c value ITC data analysis protocol[40],[41]. For CTP and CDPCho titrations of PfCCT(528–795) K663A, and CTP titrations of T761A and T762A variants of PfCCT(528-795), mean and SD from two independent experiments are provided, whereas for CDPCho titrations of PfCCT(581–775) and PfCCT(528-795) mean and SD from three independent experiments are provided. For PfCCT(528-795) (Y626F/Q636A), errors of model fit to data of a single ligand binding experiment are given.

[11] = target: T3, PfCCT(528–795) K663A; assay: as above; settings: 20 °C
Experimental: as §3

[12] = target: T1, PfCCT(528–795); assay: as above; settings: 20 °C
Experimental: as §3

[13] = CTP varied 100 μM–2 mM, ChoP fixed 5 mM, read-out: KM,CTP
[14] = ChoP varied 0.5–20 mM, CTP fixed 1 mM, read-out: KM,ChoP

Nc1ccn([C@@H]2O[C@H](COP(=O)(O)OP(=O)(O)OP(=O)(O)O)[C@@H](O)[C@H]2O)c(=O)n1 [CTP]
Km ([1]; read-out: KM,CTP): 170 ± 20 µM | Kd [2]: 170 ± 35 µM | Kd [3]: 170 ± 12 µM | STD-NMR signal of ligand bound to enzyme ([4]; ligand 1 mM): STD signal | Km [5, 13]: 1270 µM | Km [6, 13]: 610 ± 70 µM | Km [7]: 70 ± 20 µM | Km [8]: 1100 µM | Km [9, 13]: 170 ± 10 µM | ΔGCTP [10]: -5.7 ± 0.1 kcal/mol | ΔHCTP [10]: -10.8 ± 0.1 kcal/mol | −TΔSCTP [10]: 5.1 ± 0.2 kcal/mol | Kd ([10]; read-out: Kd,CTP): 60 ± 2 µM | ΔGCTP ([11]; pH 7.5, N fixed to 1): -4.4 ± 0.1 kcal/mol | −TΔSCTP ([11]; pH 7.5, N fixed to 1): -10.5 ± 0.6 kcal/mol | Kd ([11]; pH 7.5, N fixed to 1 (low c value protocol), read-out: Kd,CTP): 520 ± 50 µM | ΔGCTP ([12]; pH 7.5): -5.7 ± 0.1 kcal/mol | ΔHCTP ([12]; pH 7.5): -8.6 ± 0.3 kcal/mol | −TΔSCTP ([12]; pH 7.5): 3.0 ± 0.4 kcal/mol | Kd ([12]; pH 7.5, read-out: Kd,CTP): 60 ± 2 µM

C[N+](C)(C)CCOP(=O)(O)O [ChoP, phosphocholine]
Km ([1]; read-out: KM,ChoP): 1950 µM | STD-NMR signal of ligand bound to enzyme ([4]; ligand 4 mM): STD signal | Km [5, 14]: 3700 µM | Km [6, 14]: 2100 µM | Km [9, 14]: 1600 µM
